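Step 1: Grow cells in 96-well plates. Step 2: Expose to compound for 48 hours at 5 concentrations. Step 3: Interpolate endpoints linearly; if unreached, use highest concentration. GI50 is the concentration that inhibits growth by half.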 Activity calls are given as the source filed them. Cut-off read from the data, not from the text of the source: active = GI50 up to about 1.1 µM and inactive = higher.
How the values were obtained:
Test in all cases: NCI anticancer screen, dose series, 48 h
SK-OV-3 = tested on: SK-OV-3
SK-MEL-2 = tested on: SK-MEL-2
RXF 393 = tested on: RXF 393
IGROV-1 = tested on: IGROV-1
K562 = tested on: K562
A498 = tested on: A498
UACC-257 = tested on: UACC-257
U-251 = tested on: U-251
CCRF-CEM = tested on: CCRF-CEM
SF-268 = tested on: SF-268
SK-MEL-5 = tested on: SK-MEL-5
SW-620 = tested on: SW-620
OVCAR-5 = tested on: OVCAR-5
KM12 = tested on: KM12
DMS-114 = tested on: DMS-114
DLD-1 = tested on: DLD-1
HOP-62 = tested on: HOP-62
SNB-19 = tested on: SNB-19
COLO 205 = tested on: COLO 205
NCI-H522 = tested on: NCI-H522
HCC 2998 = tested on: HCC 2998
SK-MEL-28 = tested on: SK-MEL-28
MOLT-4 = tested on: MOLT-4
NCI-H226 = tested on: NCI-H226
LOX IMVI = tested on: LOX IMVI
NCI-H460 = tested on: NCI-H460
M19-MEL = tested on: M19-MEL
LXFL 529 = tested on: LXFL 529
UO-31 = tested on: UO-31
HT-29 = tested on: HT-29
DMS-273 = tested on: DMS-273
TK-10 = tested on: TK-10
HOP-18 = tested on: HOP-18
NCI-H23 = tested on: NCI-H23
SN12C = tested on: SN12C
EKVX = tested on: EKVX
OVCAR-8 = tested on: OVCAR-8
SR = tested on: SR
A549 = tested on: A549
SF-539 = tested on: SF-539
CAKI-1 = tested on: CAKI-1
UACC-62 = tested on: UACC-62
XF498 = tested on: XF498
Malme-3M = tested on: Malme-3M
786-0 = tested on: 786-0
SF-295 = tested on: SF-295
ACHN = tested on: ACHN
OVCAR-4 = tested on: OVCAR-4
HOP-92 = tested on: HOP-92
RXF 631 = tested on: RXF 631
HL-60 = tested on: HL-60
SNB-78 = tested on: SNB-78
M14 = tested on: M14
OVCAR-3 = tested on: OVCAR-3
SNB-75 = tested on: SNB-75
HCT-116 = tested on: HCT-116
HCT-15 = tested on: HCT-15
RPMI-8226 = tested on: RPMI-8226
KM-20L2 = tested on: KM-20L2

`Cn1c(=O)c2nc3sc4ccccc4c(=N)n3c2n(C)c1=O` was tested, and the GI50 (SK-OV-3) was > 100 µM (inactive), the GI50 (SK-MEL-2) was > 100 µM (inactive) and the GI50 (RXF 393) was > 100 µM (inactive). The GI50 (IGROV-1) was > 100 µM (inactive), the GI50 (K562) was > 100 µM (inactive) and the GI50 (A498) was > 100 µM (inactive). For the same molecule, the GI50 (UACC-257) was > 100 µM (inactive), the GI50 (U-251) was > 10 µM (inactive) and the GI50 (CCRF-CEM) was > 100 µM (inactive). The GI50 (SF-268) was > 100 µM (inactive), the GI50 (SK-MEL-5) was > 100 µM (inactive) and the GI50 (SW-620) was > 100 µM (inactive). The GI50 (OVCAR-5) was > 100 µM (inactive), the GI50 (KM12) was > 100 µM (inactive) and the GI50 (DMS-114) was > 100 µM (inactive). For the same molecule, the GI50 (DLD-1) was > 100 µM (inactive), the GI50 (HOP-62) was > 100 µM (inactive) and the GI50 (SNB-19) was > 100 µM (inactive). For the same molecule, the GI50 (COLO 205) was > 100 µM (inactive), the GI50 (NCI-H522) was > 100 µM (inactive) and the GI50 (HCC 2998) was > 100 µM (inactive). For the same molecule, the GI50 (SK-MEL-28) was > 100 µM (inactive), the GI50 (MOLT-4) was > 100 µM (inactive) and the GI50 (NCI-H226) was 25.1 µM (inactive). For the same molecule, the GI50 (LOX IMVI) was > 100 µM (inactive), the GI50 (NCI-H460) was > 100 µM (inactive) and the GI50 (M19-MEL) was > 100 µM (inactive). The GI50 (LXFL 529) was > 100 µM (inactive), the GI50 (UO-31) was > 100 µM (inactive) and the GI50 (HT-29) was > 100 µM (inactive). The GI50 (DMS-273) was > 100 µM (inactive), the GI50 (TK-10) was > 100 µM (inactive) and the GI50 (HOP-18) was > 100 µM (inactive). For the same molecule, the GI50 (NCI-H23) was > 100 µM (inactive), the GI50 (SN12C) was > 100 µM (inactive) and the GI50 (EKVX) was > 100 µM (inactive). For the same molecule, the GI50 (OVCAR-8) was > 100 µM (inactive), the GI50 (SR) was > 100 µM (inactive) and the GI50 (A549) was > 100 µM (inactive). For the same molecule, the GI50 (SF-539) was > 100 µM (inactive), the GI50 (CAKI-1) was > 100 µM (inactive) and the GI50 (UACC-62) was > 100 µM (inactive). For the same molecule, the GI50 (XF498) was > 100 µM (inactive), the GI50 (Malme-3M) was > 100 µM (inactive) and the GI50 (786-0) was > 100 µM (inactive). The GI50 (SF-295) was > 100 µM (inactive), the GI50 (ACHN) was > 100 µM (inactive) and the GI50 (OVCAR-4) was > 100 µM (inactive). For the same molecule, the GI50 (HOP-92) was > 100 µM (inactive), the GI50 (RXF 631) was > 100 µM (inactive) and the GI50 (HL-60) was > 100 µM (inactive). The GI50 (SNB-78) was > 100 µM (inactive).
`COc1ccc2c(c1)CCc1c(C(C)=O)c3ccccc3n1C2` was tested, and the GI50 (RXF 393) was 22.8 µM (inactive), the GI50 (M14) was 94.6 µM (inactive) and the GI50 (IGROV-1) was 19.3 µM (inactive). The GI50 (K562) was 6.37 µM (inactive), the GI50 (UACC-257) was 15.3 µM (inactive) and the GI50 (U-251) was 20.2 µM (inactive). The GI50 (OVCAR-3) was 12.1 µM (inactive), the GI50 (CCRF-CEM) was 63.4 µM (inactive) and the GI50 (SF-268) was 29.1 µM (inactive). For the same molecule, the GI50 (SK-MEL-5) was 6.19 µM (inactive), the GI50 (SW-620) was > 100 µM (inactive) and the GI50 (OVCAR-5) was > 100 µM (inactive). The GI50 (KM12) was > 100 µM (inactive), the GI50 (DMS-114) was 31.7 µM (inactive) and the GI50 (DLD-1) was 42.4 µM (inactive). For the same molecule, the GI50 (HOP-62) was 26.4 µM (inactive), the GI50 (SNB-19) was 38.5 µM (inactive) and the GI50 (COLO 205) was > 100 µM (inactive). For the same molecule, the GI50 (NCI-H522) was 19.9 µM (inactive), the GI50 (HCC 2998) was 33.7 µM (inactive) and the GI50 (SK-MEL-28) was 60.3 µM (inactive). For the same molecule, the GI50 (MOLT-4) was 13.4 µM (inactive), the GI50 (LOX IMVI) was 41 µM (inactive) and the GI50 (NCI-H460) was 47.3 µM (inactive). For the same molecule, the GI50 (M19-MEL) was 57.5 µM (inactive), the GI50 (LXFL 529) was 12.1 µM (inactive) and the GI50 (UO-31) was 11.7 µM (inactive). The GI50 (SNB-75) was 33.4 µM (inactive), the GI50 (HT-29) was > 100 µM (inactive) and the GI50 (DMS-273) was 33 µM (inactive). For the same molecule, the GI50 (TK-10) was 60.4 µM (inactive), the GI50 (HOP-18) was 58.6 µM (inactive) and the GI50 (NCI-H23) was 16.5 µM (inactive). The GI50 (SN12C) was 49.5 µM (inactive), the GI50 (OVCAR-8) was 28.1 µM (inactive) and the GI50 (SR) was 28.7 µM (inactive). For the same molecule, the GI50 (A549) was 11.2 µM (inactive), the GI50 (SF-539) was 20.7 µM (inactive) and the GI50 (CAKI-1) was 24 µM (inactive). The GI50 (UACC-62) was 25.6 µM (inactive), the GI50 (XF498) was 12.9 µM (inactive) and the GI50 (HCT-116) was 25.8 µM (inactive). For the same molecule, the GI50 (Malme-3M) was 18.1 µM (inactive), the GI50 (786-0) was 31.6 µM (inactive) and the GI50 (SF-295) was 12.7 µM (inactive). For the same molecule, the GI50 (ACHN) was 12 µM (inactive), the GI50 (OVCAR-4) was 28.3 µM (inactive) and the GI50 (HOP-92) was 20.3 µM (inactive). For the same molecule, the GI50 (RXF 631) was 42.1 µM (inactive), the GI50 (HL-60) was 11.5 µM (inactive) and the GI50 (SNB-78) was 52 µM (inactive).
For `O=C(Nc1ccccc1)C(=O)C(C(=O)c1ccccc1F)C1OC(=O)c2ccccc21` (stereo not drawn), the GI50 (SK-OV-3) was 49 µM (inactive), the GI50 (SK-MEL-2) was 23.9 µM (inactive) and the GI50 (RXF 393) was 35.8 µM (inactive). For the same molecule, the GI50 (M14) was 44 µM (inactive), the GI50 (IGROV-1) was 71.4 µM (inactive) and the GI50 (K562) was 44.7 µM (inactive). The GI50 (A498) was 89.3 µM (inactive), the GI50 (UACC-257) was 66.5 µM (inactive) and the GI50 (U-251) was 22.9 µM (inactive). For the same molecule, the GI50 (CCRF-CEM) was 29.5 µM (inactive), the GI50 (SF-268) was 21.1 µM (inactive) and the GI50 (SK-MEL-5) was 71.8 µM (inactive). For the same molecule, the GI50 (SW-620) was 41.9 µM (inactive), the GI50 (OVCAR-5) was 81.5 µM (inactive) and the GI50 (KM12) was 26.9 µM (inactive). For the same molecule, the GI50 (DMS-114) was 20.9 µM (inactive), the GI50 (DLD-1) was 41.9 µM (inactive) and the GI50 (HOP-62) was 42.8 µM (inactive). For the same molecule, the GI50 (SNB-19) was 27.5 µM (inactive), the GI50 (COLO 205) was 22.4 µM (inactive) and the GI50 (NCI-H522) was 21.5 µM (inactive). The GI50 (HCC 2998) was 30.3 µM (inactive), the GI50 (SK-MEL-28) was 40.6 µM (inactive) and the GI50 (MOLT-4) was 28.4 µM (inactive). The GI50 (NCI-H226) was 25.1 µM (inactive), the GI50 (LOX IMVI) was 27.2 µM (inactive) and the GI50 (NCI-H460) was 37.7 µM (inactive). For the same molecule, the GI50 (M19-MEL) was 30.1 µM (inactive), the GI50 (LXFL 529) was 23.6 µM (inactive) and the GI50 (UO-31) was 47.3 µM (inactive). The GI50 (SNB-75) was 21.1 µM (inactive), the GI50 (HCT-15) was 22.9 µM and the GI50 (HT-29) was 37.9 µM (inactive). The GI50 (DMS-273) was 31.3 µM (inactive), the GI50 (TK-10) was 69.2 µM (inactive) and the GI50 (NCI-H23) was 47.3 µM (inactive). The GI50 (SN12C) was 37.1 µM (inactive), the GI50 (EKVX) was 35 µM (inactive) and the GI50 (OVCAR-8) was 19.5 µM (inactive). For the same molecule, the GI50 (SR) was 21.5 µM (inactive), the GI50 (RPMI-8226) was 35.1 µM (inactive) and the GI50 (A549) was 37.8 µM (inactive). The GI50 (SF-539) was 19.3 µM (inactive), the GI50 (CAKI-1) was 55.6 µM (inactive) and the GI50 (UACC-62) was 23.5 µM (inactive). For the same molecule, the GI50 (XF498) was 20.7 µM (inactive), the GI50 (HCT-116) was 18.9 µM (inactive) and the GI50 (SF-295) was 47.1 µM (inactive). The GI50 (KM-20L2) was 33.6 µM (inactive), the GI50 (ACHN) was 49.9 µM (inactive) and the GI50 (OVCAR-4) was 31.6 µM (inactive). The GI50 (HOP-92) was > 100 µM (inactive), the GI50 (RXF 631) was 31.2 µM (inactive) and the GI50 (HL-60) was 24.4 µM (inactive). For the same molecule, the GI50 (SNB-78) was > 100 µM (inactive).

Source: ChEMBL document CHEMBL1201862, “PubChem BioAssay data set” (2004)
